Measurements as given in the PolyMetriX glass transition set.
± gives the standard deviation of the reports.

SMILES | glass transition temperature [°C]
*Oc1ccc(Sc2ccc(Oc3ccc4c(=O)n5c6cc(-c7ccc8c(c7)nc7c9ccc(*)c%10cccc(c(=O)n87)c%109)ccc6nc5c5cccc3c45)cc2)cc1 (repeat unit) | 386.00
*c1ccc(C(=O)Nc2ccc(NC(=O)c3ccc(Oc4ccc(-c5nn(*)c(=O)c6ccccc56)c5ccccc45)cc3)cc2)cc1 (repeat unit) | 347.50
*CCCCNC(=O)C(OC)C(OC)C(=O)N* (repeat unit) | 100.00
*Oc1ccc(Oc2ccc(C(=O)c3ccc(*)cc3)cc2)cc1S(=O)(=O)O (repeat unit) | 225.00
*Nc1ccc(NC(=O)CCCC(*)=O)cc1 (repeat unit) | 135.00
*CC(*)C(=O)OCC(F)(F)F (repeat unit) | 3.10
*CN1C(=O)c2ccc(C(c3ccc4c(c3)C(=O)N(Cc3nc5ccc(Cc6ccc7nc(*)oc(=O)c7c6)cc5c(=O)o3)C4=O)(C(F)(F)F)C(F)(F)F)cc2C1=O (repeat unit) | 218.00
*c1ccc(Oc2ccc(C(c3ccc(Oc4ccc(-c5ncc(*)o5)cc4C(F)(F)F)cc3)(C(F)(F)F)C(F)(F)F)cc2)c(C(F)(F)F)c1 (repeat unit) | 205.00
*c1ccc(Oc2ccc(C(=O)c3cccc(C(=O)c4ccc(Oc5ccc(N6C(=O)c7ccc([Si](C)(C)c8ccc9c(c8)C(=O)N(*)C9=O)cc7C6=O)cc5)cc4)c3)cc2)cc1 (repeat unit) | 208.00
*c1ccc(C(c2ccc(N3C(=O)c4ccc(Oc5ccc6ccc(Oc7ccc8c(c7)C(=O)N(*)C8=O)cc6c5)cc4C3=O)cc2)(C(F)(F)F)C(F)(F)F)cc1 (repeat unit) | 256.00
*Sc1ccc(Cc2ccc(SC(*)=O)cc2)cc1 (repeat unit) | 117.00
*c1c(C)cc(-c2cc(C)c(N3C(=O)c4cccc(Oc5ccc(C(C)(C)c6ccc(Oc7cccc8c7C(=O)N(*)C8=O)cc6)cc5)c4C3=O)c(C)c2)cc1C (repeat unit) | 265.00
*CC(COc1ccc(C(C)(C)c2ccc(O*)cc2)cc1)OC(=O)CC (repeat unit) | 60.00
*CC(*)c1ccc(OCC)cc1 (repeat unit) | 86.00
*CCCCCC(c1ccc(O)cc1)C(*)c1ccc(O)cc1C (repeat unit) | 16.00
*CCCCN1C(=O)c2ccc(C(=O)Oc3ccc(-c4ccc(OC(=O)c5ccc6c(c5)C(=O)N(*)C6=O)cc4)cc3)cc2C1=O (repeat unit) | 126.00
*Sc1ccc(Sc2ccc(Sc3ccc4c(c3)C(=O)N(N3C(=O)c5ccc(*)cc5C3=O)C4=O)cc2)cc1 (repeat unit) | 223.50
*C(=O)c1cc2c(cc1Cl)C(=O)N(c1cc(Cl)c(N3C(=O)c4cc(*)c(Cl)cc4C3=O)cc1Cl)C2=O (repeat unit) | 367.00
*CC(OC)C(C(=O)OC)C(*)C(=O)OC (repeat unit) | 59.50
*Oc1ccc(C(=O)NNC(=O)c2ccc(C(=O)NNC(=O)c3ccc(OC(=O)c4cccc(C(*)=O)c4)cc3)cc2)cc1 (repeat unit) | 175.00
*C(=O)c1ccc(C(=O)N2CC(C)N(*)CC2C)cc1 (repeat unit) | 350.00
*Oc1ccc(CC(NC(=O)Cc2ccc(OC(=O)COCC(*)=O)cc2)C(=O)OCCCCCCCC)cc1 (repeat unit) | 51.00

SMILES | glass transition temperature [°C]
*c1cccc(P(=O)(c2ccccc2)c2cccc(-n3c(=O)c4c(-c5cc(C(F)(F)F)cc(C(F)(F)F)c5)c5c(=O)n(*)c(=O)c5c(-c5cc(C(F)(F)F)cc(C(F)(F)F)c5)c4c3=O)c2)c1 (repeat unit) | 324.00
*OC(=O)c1ccc(C(C)(C)c2ccc(C(*)=O)cc2)cc1 (repeat unit) | 100.00
*Oc1ccc(NC(=O)c2ccc(S(=O)(=O)c3ccc(C(=O)Nc4ccc(Oc5ccc(C(c6ccc(*)cc6)(C(F)(F)F)C(F)(F)F)cc5)cc4)cc3)cc2)cc1 (repeat unit) | 250.00
*CC1CCC(COC(C)OC(=O)c2cccc(C(=O)OC(C)O*)c2)CC1 (repeat unit) | 30.00
*CC(*)(CC(=O)OCCCCCCCCC)C(=O)OCCCCCCCCC (repeat unit) | -13.00
*C[Si](*)(C)CCCOCCOCCOC (repeat unit) | -73.30
*CC(*)c1ccc(C(C)(O)CCC)cc1 (repeat unit) | 135.00
*CC(O)CN(*)c1cc(C)c(/N=N/c2ccc([N+](=O)[O-])cc2C)c(C)c1 (repeat unit) | 149.00
*Oc1ccc(CC(NC(=O)Cc2ccc(OC(=O)CCCCCCCCC(*)=O)cc2)C(=O)OCCCCCCCC)cc1 (repeat unit) | 16.00
*C(=O)c1ccc2c(c1)C(=O)N(c1ccc(-c3ccc(N4C(=O)c5ccc(*)cc5C4=O)cc3C)c(C)c1)C2=O (repeat unit) | 385.00
*CCN(*)C(=O)c1cccc(F)c1F (repeat unit) | 110.00
*Nc1cc([N+](=O)[O-])c(NC(=O)CCCCCCCCCCCCC(*)=O)cc1/C=C/c1ccc(N(C)C)cc1 (repeat unit) | 125.00
*CCCNC(=O)CCCCCCCCC(=O)NCCCOCCOCCO* (repeat unit) | 40.00
*C1C(=O)N(c2ccc(O[Si](C)(C)C(C)(C)C)cc2)C(=O)C1* (repeat unit) | 169.00
*c1ccc(Oc2ccc(N3C(=O)c4ccc(Oc5ccc(C6(c7ccc(Oc8ccc9c(c8)C(=O)N(*)C9=O)cc7)CCC(c7ccccc7)CC6)cc5)cc4C3=O)cc2)cc1 (repeat unit) | 236.00
*C1(C)CC(*)(C)C(=O)N(C)C1=O (repeat unit) | 170.00
*CC(*)OCCOc1ccc(/N=N/c2ccc([N+](=O)[O-])cc2)cc1 (repeat unit) | 54.00
*c1ccc(Oc2cccc(Oc3ccc(N4C(=O)c5ccc(Oc6ccc(Oc7ccc8c(c7)C(=O)N(*)C8=O)cc6)cc5C4=O)cc3)c2)cc1 (repeat unit) | 199.00
*Oc1ccc(C(=O)c2ccc(Oc3ccc(C(=O)c4cccc(C(=O)c5ccc(*)cc5)c4)cc3)cc2)cc1 (repeat unit) | 152.00
*CC(C)(C)C1C(=O)N(CCCC)C(=O)C1* (repeat unit) | 80.00
*C(=O)c1ccc2c(c1)C(=O)N(c1ccc(CP(=O)(OCCCl)OCCCl)c(N3C(=O)c4ccc(*)cc4C3=O)c1)C2=O (repeat unit) | 261.00
*c1ccc(Cc2ccc(N3C(=O)c4ccc(-c5ccc6c(c5)C(=O)N(*)C6=O)cc4C3=O)cc2)cc1 (repeat unit) | 308.00 ± 6.8

SMILES | glass transition temperature [°C]
*Nc1cc(NC(=O)c2ccccc2C(*)=O)cc(-c2nnc(-c3ccccn3)o2)c1 (repeat unit) | 90.00
*Nc1ccc(C(c2ccc(NC(=O)c3ccc(C(*)=O)cc3)cc2)(P2(=O)Oc3ccccc3-c3ccccc32)P2(=O)Oc3ccccc3-c3ccccc32)cc1 (repeat unit) | 245.00
*C(=O)c1ccc2nc(-c3ccccc3)c(-c3ccc(N4C(=O)c5ccc(C(=O)c6ccc7c(c6)C(=O)N(c6ccc(-c8nc9cc(*)ccc9nc8-c8ccccc8)cc6)C7=O)cc5C4=O)cc3)nc2c1 (repeat unit) | 255.00
*CC(*)(C)C(=O)OCc1ccc(/C=C/C(=O)Oc2ccc3oc(=O)ccc3c2)cc1 (repeat unit) | 140.00
*CC(*)(C)C(=O)OCCCCCCCOc1ccc2cc(C(=O)Oc3ccccc3)ccc2c1 (repeat unit) | 40.00
*c1ccc(Oc2ccc(N3C(=O)c4ccc(Oc5cc6ccccc6cc5Oc5ccc6c(c5)C(=O)N(*)C6=O)cc4C3=O)cc2)cc1 (repeat unit) | 220.50
*Oc1ccc(C2(c3ccc(Oc4ccc(C(=O)c5ccccc5-c5ccccc5C(=O)c5ccc(*)cc5)cc4)cc3)c3ccccc3-c3ccccc32)cc1 (repeat unit) | 229.00
*Oc1ccc(Oc2ccc(C(=O)c3ccc(C(=O)c4ccc(*)cc4)cc3)cc2)cc1 (repeat unit) | 152.00
*c1ccc(OCCCCCCCCCCCOC(=O)CCCCC(=O)OCCCCCCCCCCCOc2ccc(-c3nnc(*)s3)cc2)cc1 (repeat unit) | 69.00
*CCc1cc(C)c(*)cc1C (repeat unit) | 100.00
*CCCCCCCCCCCCNC(=O)NCCCCCCNC(=O)N* (repeat unit) | 49.00
*C(=O)Nc1ccc(S(=O)(=O)c2ccc(NC(=O)c3ccc4[nH]c(-c5cc(-c6nc7cc(*)ccc7[nH]6)cc(N6C(=O)c7ccccc7C6=O)c5)nc4c3)cc2)cc1 (repeat unit) | 325.00
*CC(*)(C)C(=O)OCc1cccc(Cl)c1 (repeat unit) | 18.2
*c1ccc(Oc2ccc(-c3ccc(Oc4ccc(N5C(=O)c6ccc(Oc7ccc(Sc8ccc(Oc9ccc%10c(c9)C(=O)N(*)C%10=O)cc8)cc7)cc6C5=O)cc4)cc3)cc2)cc1 (repeat unit) | 205.00
*CC(*)C(=O)OCCCCCCCOC(=O)c1ccc(OC(=O)c2ccc(C#N)cc2)cc1 (repeat unit) | 20.00
*c1cccc(OCCCCCCCCCCCCOc2cccc(N3C(=O)c4ccc(-c5cccc6c5C(=O)N(*)C6=O)cc4C3=O)c2)c1 (repeat unit) | 116.00
*CCCCCCN1C(=O)c2ccc(C(=O)Oc3ccc(-c4ccc(OC(=O)c5ccc6c(c5)C(=O)N(*)C6=O)cc4)cc3)cc2C1=O (repeat unit) | 133.00
*CCN(*)C(=O)c1ccc(F)cc1F (repeat unit) | 108.00
*CCCCCCCCCCCCOc1ccc(CCc2ccc(O*)cc2C)cc1 (repeat unit) | 0.00
*c1ccc(Nc2ccc(C(c3ccc(Nc4ccc(S(*)(=O)=O)cc4)cc3)(C(F)(F)F)C(F)(F)F)cc2)cc1 (repeat unit) | 145.00
*c1nc(C)nc(N(CCCCCCCCCCN(*)c2ccccc2)c2ccccc2)n1 (repeat unit) | 48.00
